In patent publication US11472841B2, “Immunogenic composition” (MENICON CO., LTD., priority 2018, dated 2022):

B1: OVA: Ovalbumin antigen, Wako Pure Chemical Industries (protein, UniProt P01012 2-386, looked up)
Ovalbumin: GSIGAASMEFCFDVFKELKVHHANENIFYCPIAIMSALAMVYLGAKDSTRTQINKVVRFDKLPGFGDSIEAQCGTSVNVHSSLRDILNQITKPNDVYSFSLASRLYAEERYPILPEYLQCVKELYRGGLEPINFQTAADQARELINSWVESQTNGIIRNVLQPSSVDSQTAMVLVNAIVFKGLWEKAFKDEDTQAMPFRVTEQESKPVQMMYQIGLFRVASMASEKMKILELPFASGTMSMLVLLPDEVSGLEQLESIINFEKLTEWTSSNVMEERKIKVYLPRMKMEEKYNLTSVLMAMGITDVFSSSANLSGISSAESLKISQAVHAAHAEINEAGREVVGSAEAGVDAASVSEEFRADHPFLFCIKHIATNAVLFFGRCVSP

How the values were obtained:
female BALB/c mice [1] = assay: Example 4: tissue specimen of back skin including administration site; format: in vivo; settings: 7 days after the administration, intradermal
Experimental: (§1) Five-week-old female BALB/c mice (supplied by Charles River) were divided into administration groups of 2 mice and an untreated group of 3 mice. 100 μL of each test sample described in Table 5 was intradermally administered to mice of corresponding groups on days 0, 7, and 14 of the administration. […] The collected blood was incubated at 25° C. for 30 minutes and then preserved overnight at 4° C. to assemble a blood clot, centrifugation was performed at 1,000 to 1,200 × g at 4° C. for 20 minutes, and a supernatant was collected. The blood IgG value of the collected serum was measured using an IgG ELISA kit. The serum was diluted 200,000 times with a dilution buffer attached to the kit. In addition, the back skin including the administration site of the third test sample was collected after collecting blood to prepare a tissue specimen.
The method for preparing the above-described test sample is as follows. […]

female BALB/c mice [2] = assay: Example 4: blood IgG value (IgG ELISA kit) after three intradermal administrations; format: in vivo; settings: in combination with any antigen protein (albumin, casein, lysozyme, papain); day 21
Experimental: as §1
The method for preparing the above-described test sample is as follows. That is, an antigen solution was prepared by dissolving an antigen protein in water, and the antigen solution and a 1.5 w/v % peptide composition (peptide compositions A to D described in Table 1) or PuraMatrix™ (which is manufactured by Corning Japan Ltd. and is a self-assembling peptide composition containing 1.0 w/v % of Ac-[…]-CONH2 (SEQ ID No: 18)) were mixed with each other so that the self-assembling peptide concentration became 0.75 w/v % and the antigen protein concentration became 0.25 mg/mL (=0.025 w/v %) to prepare a test sample. In addition, a sample obtained by mixing the above-described antigen solution with physiological saline so that the antigen protein concentration became 0.25 mg/mL was used as a control sample.

[3] = antigen protein; cited from earlier work

Molecule	remaining of test sample inside the skin (female BALB/c mice [1])	immunogenicity (blood IgG) (female BALB/c mice [2])	Isoelectric point [3]
Ac-RLDLRLALRLDLR-NH2 [SEQ ID No: 1]	the test sample remained inside the skin	enhanced	
Ac-RLDLRLSLRLDLR-NH2 [SEQ ID No: 15]	the test sample remained inside the skin	enhanced	
SEQ ID No: 16 (RLDLRLNLRLDLR; self-assembling peptide)		enhanced	
B1			OVA: Ovalbumin (isoelectric point: 4.5, manufactured by Wako Pure Chemical Industries, Ltd., Cat. No.
